One data set has as its system model animals. The following applies: after three days of oral administration; cited from earlier work.
Data set [1] deals with HEK293T/17-ATF4 uORF-Luc-Puro monoclonal cells. The data set is described as follows: Cellular activity assay: ATF4 luciferase reporter, thapsigargin-induced stress. The data set is classed as cell-based. The conditions noted are these: Homo sapiens, HEK-293T; ATF4 reporter expression; 50 nM thapsigargin, 6 h incubation. From the text:
The ATF4 luciferase reporter plasmid consists of two components: the 5' untranslated region sequence of the ATF4 gene and the luciferase encoding sequence. Specifically, the ATF4 5' untranslated region sequence (NCBI Database accession number BC022088.2) containing two upstream open reading frames (uORFs) and the firefly luciferase encoding gene were cloned into the pLVX-Puro vector (Unibio, VT1465). The packaging plasmids for lentivirus are psPAX2 (Unibio, VT1444) and pMD2.G (Unibio, VT1443). The three plasmids above were co-transfected into HEK293T/17 cells using X-tremeGENE 9 DNA transfection reagent, and the lentivirus-containing culture medium was collected 48 hours post-transfection. The HEK293T/17 cells transduced with the lentivirus were selected using 1 µg/mL puromycin, followed by obtaining a monoclonal cell line via limited dilution.
Using this cell line, the translational regulation of ATF4 can be detected via […], and the activity of the eIF2B activator can be tested. The specific experimental procedure was as follows: Seed 6,000 HEK293T/17-ATF4 uORF-Luc-Puro monoclonal cells in a 384-well plate and allow the cells to adhere overnight. The test compounds were dissolved in DMSO and added along with 50 nM thapsigargin into the cell culture medium, followed by incubation for 6 h. Thapsigargin was used to induce cellular stress, thereby upregulating translation of the ATF4 protein. After 6 hours of treatment, cells were lysed using the One-Glo Luciferase Assay Kit (Promega #E6120), then the luminescence values were measured using the LUM program of the EnVision 2104 plate reader.
The relative expression level of the ATF4 reporter gene (ATF4 reporter expression %) was calculated as follows: • ATF4 reporter expression %=(ave_sample-ave_vc)/(ave_pc-ave_vc)*100%. • ave_vc: mean signal value of negative control • ave_pc: mean signal value of positive control • ave_sample: mean signal value of sample
The EC50 value was calculated by fitting a dose-response curve: • The correspondence between the relative expression level of the ATF4 reporter gene and the compound concentration was fitted using the nonlinear regression log(inhibitor) vs. response - variable slope (four parameters) approach in GraphPad 9 software. • X axis: log of compound concentration; Y: relative expression level of ATF4 reporter gene. • Y = Bottom + (Top−Bottom)/(1+10^(∧)((LogEC50−X)*HillSlope)) [formula]

A short description of data set [2]: Pharmacokinetic assessment in mice. The data set is classed as in vivo. The following applies: plasma. The protocol:
The test compound was dissolved in a solvent to prepare a clear solution or homogeneous suspension. Three mice per group were administered 1 mg/kg intravenously in the tails and 30 mg/kg orally (PO). Blood samples were collected at 0.083 h, 0.25 h, 0.5 h, 1 h, 2 h, 4 h, 8 h, and 24 h post intravenous administration, and at 0.25 h, 0.5 h, 1 h, 2 h, 4 h, 6 h, 8 h, and 24 h post oral administration. Plasma samples were centrifuged to obtain the supernatant, which was prepared as samples for quantitative analysis by LC/MS/MS. Table 2 PK Properties of Exemplary Compound 3 in Mice

For data set [3] the following is noted: Phase 1 data from healthy subjects; cited from earlier work.
Another data set relates to mouse models. The conditions noted are these: cited from earlier work.

The source of these data is EP4745128A1, “COMPOUND, PHARMACEUTICAL COMPOSITION COMPRISING SAME, AND USE THEREOF” (Shenzhen Zhongge Biological Technology Co., Ltd., priority 2023, dated 2025).

Molecules are shown by their SMILES.

On to `NC(CO)(CO)CO.O=C(COc1ccc(Cl)c(F)c1)NC12CCC(NC(=O)COc3ccc(Cl)c(F)c3)(CC1)[C@@H](OCOP(=O)([O-])O)C2.[Na+]` [ABBV-CLS-7262], for which the brain function result in the data set with model animals was “restored to youthful levels”.
`O=C(COc1ccc(Cl)c(F)c1)N[C@H]1CC[C@H](Nc2nccnc2O[C@H]2C[C@@H](OC(F)(F)F)C2)CC1` [Compound 1]: the EC50 (commonly the concentration at which the effect is half-maximal) in data set [1] is 10 to 100 nM.
In the case of `O=C(COc1ccc(Cl)c(F)c1)N[C@H]1CC[C@H](Nc2ncccc2O[C@H]2C[C@@H](OC(F)(F)F)C2)CC1` [Compound 2], in data set [1], the EC50 was greater than 100 nM.
Regarding `O=C(CO[C@H]1C[C@@H](OC(F)(F)F)C1)NC12CC(Nc3nccnc3O[C@H]3C[C@@H](OC(F)(F)F)C3)(C1)C2` [Compound 3], in data set [1], the EC50 was in the range of 1 to 10 nM. Also, in data set [2] (mouse IV (1 mg/kg)), the AUC(0-t) (usually exposure summed from dosing to a finite time, without extrapolation to infinity) is 6.32 µg·h/mL; the C0 was found to be 2620 ng/mL; the clearance (commonly the volume of plasma or blood freed of the substance per unit of time) was 2.49 mL/min/kg; the half-life – broadly, the time in which the quantity being followed falls by half – was 7.37 h. Besides, the Vd in data set [2] (mouse IV (1 mg/kg), read-out: Vss) amounted to 1410 L/kg. Moreover, in data set [2] (mouse PO (30 mg/kg)), the exposure AUC(0-t) worked out at 217 µg·h/mL; the Cmax (as a rule, the maximum level reached in the sampled fluid or tissue) came out at 20100 ng/mL; the Tmax (in general, the time at which the peak concentration occurs) amounted to 2.33 h; the bioavailability came to 114%. Besides, in data set [2] (mouse PO (30 mg/kg)), the half-life was 8.52 h.
`FC(F)(F)OC1CN(c2nnc([C@H]3CC[C@H](Nc4nccnc4O[C@H]4C[C@@H](OC(F)(F)F)C4)CC3)o2)C1` [Compound 4] yielded an EC50 in data set [1] greater than 100 nM.
In data set [1], `O=C(CO[C@H]1C[C@@H](OC(F)(F)F)C1)N[C@H]1CC[C@H](Nc2nccnc2O[C@H]2C[C@@H](OC(F)(F)F)C2)CC1` [Compound 5] showed a 50% effective concentration (EC50) greater than 100 nM.
On to `O=C(COc1ccc(Cl)cc1)NC12CC(c3nnc([C@H]4C[C@@H](OC(F)(F)F)C4)o3)(C1)C2` [DNL-343], for which the safety and tolerability entry in data set [3] is “safe and well-tolerated”.
Regarding `O=C(COc1ccc(Cl)cc1)NC1CCC(NC(=O)COc2ccc(Cl)cc2)CC1` (stereo not drawn) [ISRIB], the long-term memory result in the data set with mouse models is “improve long-term memory”.
